Source: ChEMBL document CHEMBL1147023, “(R)-sila-venlafaxine: a selective noradrenaline reuptake inhibitor for the treatment of emesis” (Bioorg Med Chem Lett, 2006)
pIC50: −log10 of the molar value. The source made the active and inactive calls. The calls are words filed in the database; no cut-off is given here.

Legend:
Mustela putorius furo [1] = experiment: Activity against morphine-induced emesis in ferret at 50 mg/kg; format: functional, organism-based; parameters: dose 50 mg/kg
[2] = Inhibitory activity against site 2 of sodium channel by radioligand […] assay
[3] = target: Sodium-dependent serotonin transporter (Homo sapiens, UniProt P31645); experiment: Inhibition of serotonin reuptake at human recombinant serotonin transporter
[4] = Plasma half life in ferret at 5 mg/kg, po; format: ADME, organism-based, Mustela putorius furo; parameters: dose 5 mg/kg, route oral
Mustela putorius furo [5] = experiment: Inhibition of morphine-induced emesis in ferret at 5 mg/kg; format: functional
[6] = Cmax in ferret at 5 mg/kg, po; format: ADME, organism-based, Mustela putorius furo; parameters: dose 5 mg/kg, route oral; details: in vivo
[7] = target: T1, Voltage-gated L-type calcium channel (Homo sapiens, UniProt Q13936+Q13698+Q01668+O60840); experiment: Inhibition of verapamil sensitive L type calcium channel by radioligand […] assay; format: protein assay
Mustela putorius furo [8] = experiment: Activity against morphine-induced emesis in ferret at 1 mg/kg; format: functional, organism-based; parameters: dose 1 mg/kg
[9] = target: Sodium-dependent noradrenaline transporter (Homo sapiens, UniProt P23975); experiment: Inhibition of noradrenaline reuptake at human recombinant noradrenaline transporter
[10] = target: T1, Voltage-gated L-type calcium channel; experiment: Inhibition of diltiazem sensitive L type calcium channel by radioligand […] assay; format: protein assay

Sodium-dependent serotonin transporter, sequence (P31645 whole entry): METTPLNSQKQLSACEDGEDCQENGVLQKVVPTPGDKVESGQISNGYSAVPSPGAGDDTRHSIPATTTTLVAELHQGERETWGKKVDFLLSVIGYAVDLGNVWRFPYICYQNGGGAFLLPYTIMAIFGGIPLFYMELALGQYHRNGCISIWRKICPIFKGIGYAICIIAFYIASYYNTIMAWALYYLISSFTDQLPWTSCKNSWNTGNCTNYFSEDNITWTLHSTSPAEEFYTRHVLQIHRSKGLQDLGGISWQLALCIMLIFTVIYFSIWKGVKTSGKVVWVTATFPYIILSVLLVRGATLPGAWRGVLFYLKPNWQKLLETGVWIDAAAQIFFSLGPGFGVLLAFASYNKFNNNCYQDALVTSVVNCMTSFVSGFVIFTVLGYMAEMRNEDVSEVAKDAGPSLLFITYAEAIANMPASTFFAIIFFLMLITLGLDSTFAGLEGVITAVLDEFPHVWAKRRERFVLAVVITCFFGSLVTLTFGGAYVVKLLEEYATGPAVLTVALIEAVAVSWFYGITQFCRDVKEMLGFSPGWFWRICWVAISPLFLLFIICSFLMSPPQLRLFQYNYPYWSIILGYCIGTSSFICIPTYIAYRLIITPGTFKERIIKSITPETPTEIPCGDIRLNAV
Sodium-dependent noradrenaline transporter, sequence (P23975 whole entry): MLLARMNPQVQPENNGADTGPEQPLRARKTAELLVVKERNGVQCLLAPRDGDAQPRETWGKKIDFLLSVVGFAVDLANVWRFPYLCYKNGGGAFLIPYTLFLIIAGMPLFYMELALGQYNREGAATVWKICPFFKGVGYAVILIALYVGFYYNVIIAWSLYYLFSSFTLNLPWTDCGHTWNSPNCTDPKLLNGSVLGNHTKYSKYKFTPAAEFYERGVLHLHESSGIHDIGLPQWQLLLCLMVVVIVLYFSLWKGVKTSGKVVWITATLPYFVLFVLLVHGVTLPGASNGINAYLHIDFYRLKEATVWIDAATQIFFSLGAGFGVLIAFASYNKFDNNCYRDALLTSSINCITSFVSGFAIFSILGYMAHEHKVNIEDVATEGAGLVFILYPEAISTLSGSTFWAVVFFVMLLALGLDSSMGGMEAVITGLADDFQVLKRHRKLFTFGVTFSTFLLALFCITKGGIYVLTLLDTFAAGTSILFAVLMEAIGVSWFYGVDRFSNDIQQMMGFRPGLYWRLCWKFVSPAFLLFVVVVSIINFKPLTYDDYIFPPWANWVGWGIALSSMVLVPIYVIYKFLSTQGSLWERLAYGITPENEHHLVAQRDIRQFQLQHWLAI

COc1ccc([C@H](CN(C)C)[Si]2(O)CCCCC2)cc1
Activity (Mustela putorius furo [1]): Active
pIC50 [2]: 5.29
pIC50 [3]: 5.38
half-life [4]: 1.1 h
inhibition in vivo at 5 mg/kg (Mustela putorius furo [5]): 93%
Cmax [6]: 225 ng/mL
IC50 [7]: 8.6 µM
Activity (Mustela putorius furo [8]): inactive
pIC50 [9]: 6.70
IC50 [10]: 2.7 µM
